27 compounds from patent publication US10988477B2 (Merck Patent GmbH, priority 2018, dated 2021) can be followed below.

For experiment [1], the target named is GCN2 kinase (Homo sapiens, UniProt Q9P2K8). Briefly: GCN2 enzyme inhibition assay (Transcreener ADP2 fluorescence polarization). The conditions noted are these: 280 μM ATP. In kind it is biochemical. The gist of the method: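 Run at 25 °C in 25 mM Tris-HCl pH 7.5, 50 mM NaCl, 10 mM MgCl2, 1 mM DTT with 4 nM GCN2, 280 μM ATP and 200 μM (RS)7 peptide; compound (0–8 μM final) preincubated 10 min, reaction 1 h. ADP read by antibody/tracer FP; IC50 and Ki(app) from tight-binding fit.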
A general note: Fluorescence polarisation rises when a labelled molecule tumbles more slowly, as on binding a larger partner.

Experiment [2] has as its target intracellular GCN2 (phosphorylation of the GCN2 substrate eIF2α) (Homo sapiens, UniProt Q9P2K8). Briefly: GCN2 cellular inhibition assay (AlphaScreen SureFire P-eIF2α Ser51, borrelidin-treated U2OS cells). In kind it is cell-based. The conditions noted are these: biomarker assay, phosphorylated eIF2α Ser51 in borrelidin-treated U2OS cells. The gist of the method:
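Borrelidin at 10 μM is added to U2OS cells immediately after compound (4-fold dilution series, 40 μM top final) for 1 h at 37 °C. Phosphorylated eIF2α Ser51 in lysates is quantified by AlphaScreen and expressed as percent inhibition against borrelidin-stimulated controls.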
(In general: Alpha assays give light when donor and acceptor beads are brought close together.)

The mark [3] stands for this setting: compounds of Formula II, 4 nM GCN2 kinase.
Setting [4] is: Enzyme activity for compounds of Formula IV, Ki(app), 25° C.

Molecules are shown by their SMILES.

As usually defined, the IC50 is the concentration needed to halve the response being measured. The low end stands for greater potency, the high end for weaker potency.

Sequence of intracellular GCN2 (phosphorylation of the GCN2 substrate eIF2α) (Q9P2K8 whole entry): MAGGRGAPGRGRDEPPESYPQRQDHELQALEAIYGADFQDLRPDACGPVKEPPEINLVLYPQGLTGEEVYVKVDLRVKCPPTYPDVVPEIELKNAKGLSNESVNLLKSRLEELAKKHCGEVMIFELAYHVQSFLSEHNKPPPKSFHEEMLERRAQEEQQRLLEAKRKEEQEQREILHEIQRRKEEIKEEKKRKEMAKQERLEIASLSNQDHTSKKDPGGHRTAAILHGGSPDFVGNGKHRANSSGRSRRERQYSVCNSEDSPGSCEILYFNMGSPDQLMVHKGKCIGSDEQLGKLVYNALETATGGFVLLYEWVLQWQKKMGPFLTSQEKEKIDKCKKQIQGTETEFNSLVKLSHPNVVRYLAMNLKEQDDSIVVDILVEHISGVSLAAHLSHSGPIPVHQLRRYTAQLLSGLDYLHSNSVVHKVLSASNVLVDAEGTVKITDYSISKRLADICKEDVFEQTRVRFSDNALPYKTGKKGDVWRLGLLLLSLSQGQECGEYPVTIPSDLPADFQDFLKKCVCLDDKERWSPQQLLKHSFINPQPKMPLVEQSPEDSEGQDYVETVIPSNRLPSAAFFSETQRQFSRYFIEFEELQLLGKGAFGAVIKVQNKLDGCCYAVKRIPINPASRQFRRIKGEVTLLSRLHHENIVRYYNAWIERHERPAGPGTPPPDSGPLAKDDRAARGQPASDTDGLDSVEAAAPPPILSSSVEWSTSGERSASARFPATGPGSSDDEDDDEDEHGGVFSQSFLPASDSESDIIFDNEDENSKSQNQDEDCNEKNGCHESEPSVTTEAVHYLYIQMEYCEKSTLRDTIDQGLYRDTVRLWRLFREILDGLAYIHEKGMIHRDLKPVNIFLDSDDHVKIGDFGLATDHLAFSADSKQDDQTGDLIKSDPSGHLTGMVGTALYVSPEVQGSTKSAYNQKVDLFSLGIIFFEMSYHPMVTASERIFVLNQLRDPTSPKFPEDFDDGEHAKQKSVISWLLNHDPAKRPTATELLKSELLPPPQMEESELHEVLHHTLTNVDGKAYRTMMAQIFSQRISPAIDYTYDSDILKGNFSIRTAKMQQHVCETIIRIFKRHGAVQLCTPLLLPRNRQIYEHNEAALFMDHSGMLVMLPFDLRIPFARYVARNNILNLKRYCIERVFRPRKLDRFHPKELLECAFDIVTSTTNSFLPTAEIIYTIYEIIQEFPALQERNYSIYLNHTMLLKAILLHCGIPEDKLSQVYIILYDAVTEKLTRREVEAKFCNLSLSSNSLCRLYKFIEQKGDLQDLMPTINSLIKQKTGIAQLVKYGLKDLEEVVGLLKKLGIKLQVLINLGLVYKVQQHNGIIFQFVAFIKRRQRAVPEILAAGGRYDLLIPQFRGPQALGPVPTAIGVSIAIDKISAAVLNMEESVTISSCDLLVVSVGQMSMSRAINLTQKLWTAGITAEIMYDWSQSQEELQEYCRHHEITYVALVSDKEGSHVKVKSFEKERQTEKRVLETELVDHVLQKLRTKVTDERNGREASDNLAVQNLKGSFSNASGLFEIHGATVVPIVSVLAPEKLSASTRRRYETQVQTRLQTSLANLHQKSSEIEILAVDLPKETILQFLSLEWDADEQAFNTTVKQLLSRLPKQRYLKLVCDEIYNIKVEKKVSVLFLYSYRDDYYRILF
Sequence of GCN2 kinase (Q9P2K8 whole entry): as above

In experiment [1] (setting [3]), `CN(C)S(=O)(=O)NCC1CN(c2cc(-c3cnc4ccc(C(F)F)nn34)ncn2)CCO1` (stereo not drawn) [II-349, 3-((4-(6-(6-(Difluoromethyl)imidazo[1,2-b]pyridazin-3-yl)pyrimidin-4-yl)morpholin-2-yl)methyl)-1,1-dimethyl sulfuric diamide] returned a Ki of 10 to 1000 nM. The compound further registered an IC50 in experiment [2] (compounds of Formula II) of 500 to 5000 nM.
`CC1CN(c2ccnc(-c3cnc4cnc(C(F)(F)F)cn34)n2)C(C)C(c2cn[nH]c2)N1` (stereo not drawn) [IV-222, 3-(4-(2,5-Dimethyl-3-(1H-pyrazol-4-yl)piperazin-1-yl)pyrimidin-2-yl)-6-(trifluoromethyl)imidazo[1,2-a]pyrazine] came in with a Ki in experiment [1] (setting [4]) of under 10 nM. The IC50 in experiment [2] (compounds of Formula IV) was under 500 nM.
Turning to `O=S(=O)(N[C@H]1CCCN(c2cc(-c3cnc4ccc(C(F)F)nn34)ncn2)C1)C1COC1` [II-419, (S)—N-(1-(6-(6-(Difluoromethyl)imidazo[1,2-b]pyridazin-3-yl)pyrimidin-4-yl)piperidin-3-yl)oxetane-3-sulfonamide], in experiment [1] (setting [3]), the Ki fell in the range of 10 to 1000 nM. The same compound came in with an IC50 in experiment [2] (compounds of Formula II) of 500 to 5000 nM.
In the case of `CC1C(C(N)=O)CCN1c1ccnc(-c2cnc3cnc(C(F)(F)F)cn23)n1` (single isomer, unassigned) [IV-615, 2-Methyl-1-(2-(6-(trifluoromethyl)imidazo[1,2-a]pyrazin-3-yl)pyrimidin-4-yl)pyrrolidine-3-carboxamide], in experiment [1] (setting [4]), the Ki fell in the range of 10 to 100 nM. In experiment [2] (compounds of Formula IV), this compound registered an IC50 of 500 to 5000 nM.
The like results for `CC(=O)N1CCN(c2ccnc(-c3cnc4cnc(C(N)=O)cn34)n2)CC1` [IV-36, 3-(4-(4-Acetylpiperazin-1-yl)pyrimidin-2-yl)imidazo[1,2-a]pyrazine-6-carboxamide] were, in that order, 100 to 1000 nM and over 5000 nM.
The like results for `CC(=O)N1CCN(c2ccnc(-c3cnc4cnc(CO)cn34)n2)CC1` [IV-26, 1-(4-(2-(6-(Hydroxymethyl)imidazo[1,2-a]pyrazin-3-yl)pyrimidin-4-yl)piperazin-1-yl)ethan-1-one] were, in that order, 100 to 1000 nM and over 5000 nM.
For `N#CCc1cccc(-c2ccnc(-c3cnc4cnc(C(F)F)cn34)n2)c1` [IV-157, 2-(3-(2-(6-(Difluoromethyl)imidazo[1,2-a]pyrazin-3-yl)pyrimidin-4-yl)phenyl)acetonitrile], in that order: 100 to 1000 nM and over 5000 nM.
`CC1C(c2cn[nH]c2)NCCN1c1ccnc(-c2cnc3cnc(C(F)(F)F)cn23)n1` (single isomer, unassigned) [IV-358, 3-(4-(2-Methyl-3-(1H-pyrazol-4-yl)piperazin-1-yl)pyrimidin-2-yl)-6-(trifluoromethyl)imidazo[1,2-a]pyrazine]: the Ki in experiment [1] (setting [4]) was under 10 nM. The compound further displayed a half-maximal inhibitory concentration (IC50) in experiment [2] (compounds of Formula IV) of 500 to 5000 nM.
For `CC1(O)CCCN(c2ccnc(-c3cnc4cnc(C(F)F)cn34)n2)CC1` (stereo not drawn) [IV-90, 1-(2-(6-(Difluoromethyl)imidazo[1,2-a]pyrazin-3-yl)pyrimidin-4-yl)-4-methylazepan-4-ol], in that order: 100 to 1000 nM and over 5000 nM.
The like results for `NS(=O)(=O)C1CCCN(c2ccnc(-c3cnc4cnc(C(F)F)cn34)n2)C1` (stereo not drawn) [IV-56, 1-(2-(6-(Difluoromethyl)imidazo[1,2-a]pyrazin-3-yl)pyrimidin-4-yl)piperidine-3-sulfonamide] were, in that order, 100 to 1000 nM and over 5000 nM.
As for `CS(=O)(=O)NCC1COCCN(c2cc(-c3cnc4ccc(C(F)(F)F)nn34)ccn2)C1` (stereo not drawn) [II-232, N-((4-(4-(6-(Trifluoromethyl)imidazo[1,2-b]pyridazin-3-yl)pyridin-2-yl)-1,4-oxazepan-6-yl)methyl)methanesulfonamide], the Ki in experiment [1] (setting [3]) is 10 to 1000 nM. In experiment [2] (compounds of Formula II), this compound came in with a concentration for half-maximal inhibition (IC50) of 500 to 5000 nM.
The like results for `CC1C(CNS(C)(=O)=O)C(F)(F)C(C)CN1c1cc(-c2cnc3ccc(C(F)F)nn23)ncn1` (single isomer, unassigned) [II-470, N-((1-(6-(6-(Difluoromethyl)imidazo[1,2-b]pyridazin-3-yl)pyrimidin-4-yl)-4,4-difluoro-2,5-dimethylpiperidin-3-yl)methyl)methanesulfonamide] were, in that order, 10 to 1000 nM and 500 to 5000 nM.
The like results for `CC(=O)N1CCN(c2cc(-c3cnc4ccc(C(F)F)nn34)ccn2)CC1` [II-176, 1-(4-(4-(6-(Difluoromethyl)imidazo[1,2-b]pyridazin-3-yl)pyridin-2-yl)piperazin-1-yl)ethanone] were, in that order, 10 to 1000 nM and 500 to 5000 nM.
As to `CC1CN(c2ccnc(-c3cnc4cnc(C(F)(F)F)cn34)n2)C(C)C(c2cn[nH]c2)N1` (single isomer, unassigned) [IV-345, 3-(4-(2,5-Dimethyl-3-(1H-pyrazol-4-yl)piperazin-1-yl)pyrimidin-2-yl)-6-(trifluoromethyl)imidazo[1,2-a]pyrazine], the Ki in experiment [1] (setting [4]) lay in the range of 10 to 100 nM. The half-inhibitory concentration (IC50) in experiment [2] (compounds of Formula IV) lay in the range of 500 to 5000 nM.
`CS(=O)(=O)N1CCN(C(=O)C2CCCN(c3cc(-c4cnc5ccc(C(F)F)nn45)ncn3)C2)CC1` (stereo not drawn) [II-206, (1-(6-(6-(Difluoromethyl)imidazo[1,2-b]pyridazin-3-yl)pyrimidin-4-yl)piperidin-3-yl)(4-(methylsulfonyl)piperazin-1-yl)methanone] yielded a Ki in experiment [1] (setting [3]) of 10 to 1000 nM. Further, the 50% inhibitory concentration (IC50) in experiment [2] (compounds of Formula II) is over 5000 nM.
In experiment [1] (setting [3]), `CC1C(CNS(C)(=O)=O)C(F)(F)C(C)CN1c1cc(-c2cnc3ccc(C(F)F)nn23)ncn1` (stereo not drawn) [II-461, N-((1-(6-(6-(Difluoromethyl)imidazo[1,2-b]pyridazin-3-yl)pyrimidin-4-yl)-4,4-difluoro-2,5-dimethylpiperidin-3-yl)methyl)methanesulfonamide] displayed a Ki of under 10 nM. The same compound returned a 50% inhibitory concentration (IC50) in experiment [2] (compounds of Formula II) of 500 to 5000 nM.
The like results for `CC1CC(C)(O)C(CNS(C)(=O)=O)CN1c1cc(-c2cnc3ccc(C(F)F)nn23)ncn1` (stereo not drawn) [II-367, N-((1-(6-(6-(Difluoromethyl)imidazo[1,2-b]pyridazin-3-yl)pyrimidin-4-yl)-4-hydroxy-4,6-dimethylpiperidin-3-yl)methyl)methanesulfonamide] were, in that order, 10 to 1000 nM and 500 to 5000 nM.
For `FC(F)c1ccc2ncc(-c3ccnc(N4CCOCC4)c3)n2n1` [II-76, 4-(4-(6-(Difluoromethyl)imidazo[1,2-b]pyridazin-3-yl)pyridin-2-yl)morpholine], in that order: 10 to 1000 nM and over 5000 nM.
The like results for `O=C(O)[C@H]1CCCN(c2cc(-c3cnc4ccc(C(F)(F)F)nn34)ncn2)C1` [II-504, (S)-1-(6-(6-(Trifluoromethyl)imidazo[1,2-b]pyridazin-3-yl)pyrimidin-4-yl)piperidine-3-carboxylic acid] were, in that order, 10 to 1000 nM and over 5000 nM.
As to `Cc1[nH]ncc1C1CN(c2ccnc(-c3cnc4cnc(C(F)F)cn34)n2)CC(C)N1` (single isomer, unassigned) [IV-462, 6-(Difluoromethyl)-3-(4-(3-methyl-5-(5-methyl-1H-pyrazol-4-yl)piperazin-1-yl)pyrimidin-2-yl)imidazo[1,2-a]pyrazine], the Ki in experiment [1] (setting [4]) was 100 to 1000 nM. The compound further had a 50% inhibitory concentration (IC50) in experiment [2] (compounds of Formula IV) of over 5000 nM.
As to `N=S1(=O)CCN(c2cc(-c3cnc4ccc(C(F)F)nn34)ncn2)CC1` [II-676, 4-[6-[6-(Difluoromethyl)imidazo[1,2-b]pyridazin-3-yl]pyrimidin-4-yl]-1-imino-1,4-thiazinane 1-oxide], the Ki in experiment [1] (setting [3]) lay within 10 to 1000 nM. This compound also showed an IC50 in experiment [2] (compounds of Formula II) of over 5000 nM.
In experiment [1] (setting [4]), `COCC1CCCN(c2ccnc(-c3cnc4cnc(C(F)(F)F)cn34)n2)C1` (stereo not drawn) [IV-495, 3-(4-(3-(Methoxymethyl)piperidin-1-yl)pyrimidin-2-yl)-6-(trifluoromethyl)imidazo[1,2-a]pyrazine] returned a Ki of 100 to 1000 nM. The 50% inhibitory concentration (IC50) in experiment [2] (compounds of Formula IV) is over 5000 nM.
For `CC(C)(C)OC(=O)N1CCC2CCN(c3ccnc(-c4cnc5cnc(C(F)F)cn45)n3)CC21` (stereo not drawn) [IV-132, tert-Butyl 6-(2-(6-(difluoromethyl)imidazo[1,2-a]pyrazin-3-yl)pyrimidin-4-yl)octahydro-1H-pyrrolo[2,3-c]pyridine-1-carboxylate], in that order: 100 to 1000 nM and over 5000 nM.
For the compound `CC1C(CNS(C)(=O)=O)CN(c2cc(-c3cnc4ccc(C(F)F)nn34)ncn2)CC1(F)F` (stereo not drawn) [II-381, N-((1-(6-(6-(Difluoromethyl)imidazo[1,2-b]pyridazin-3-yl)pyrimidin-4-yl)-5,5-difluoro-4-methylpiperidin-3-yl)methyl)methanesulfonamide], the Ki in experiment [1] (setting [3]) is under 10 nM. In experiment [2] (compounds of Formula II), this compound yielded an IC50 of under 500 nM.
`C[C@@H]1CN(c2ccnc(-c3cnc4cnc(Br)cn34)n2)C[C@H](c2cn[nH]c2)N1` (racemic) [IV-344, Cis-6-Bromo-3-(4-(3-methyl-5-(1H-pyrazol-4-yl)piperazin-1-yl)pyrimidin-2-yl)imidazo[1,2-a]pyrazine] yielded a Ki in experiment [1] (setting [4]) of 10 to 100 nM. This compound displayed an IC50 in experiment [2] (compounds of Formula IV) of 500 to 5000 nM.
Consider `CC(=O)NC1CCN(c2cc(-c3cnc4ccc(-c5cccnc5)nn34)ccn2)CC1` [II-735, N-(1-(4-(6-(pyridin-3-yl)imidazo[1,2-b]pyridazin-3-yl)pyridin-2-yl)piperidin-4-yl)acetamide], for which the Ki in experiment [1] (setting [3]) was over 1000 nM. The compound also returned an IC50 in experiment [2] (compounds of Formula II) of over 5000 nM.
In turn, `CS(=O)(=O)N1CCC(c2cc(-c3cnc4ccc(C(F)F)nn34)ncn2)C1` (stereo not drawn) [II-250, 6-(Difluoromethyl)-3-(6-(1-(methylsulfonyl)pyrrolidin-3-yl)pyrimidin-4-yl)imidazo[1,2-b]pyridazine] had a Ki in experiment [1] (setting [3]) of 10 to 1000 nM. This compound returned an IC50 in experiment [2] (compounds of Formula II) of over 5000 nM.
